Source: patent US11053204B2, “Pyrimidinyloxy benzene derivatives as herbicides” (FMC Corporation, priority 2015, dated 2021)

Assays:
Type in all cases: in vivo
[1] = tested on: Italian ryegrass (Lolium multiflorum); assay: Test A preemergence, visual injury rating
Outline: (§1)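 Pre- and postemergence greenhouse screen. Soil: loam + sand. Spray carrier: solvent mixture, non-phytotoxic, with surfactant. Post timing at 1–2 leaves, height 2–10 cm. Readout: visual injury on a 0–100 scale roughly 10 days after application, untreated plants as reference.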

[2] = tested on: barnyardgrass (Echinochloa crus-galli); assay: Test A preemergence, visual injury rating
Outline: as §1

[3] = tested on: giant foxtail (Setaria faberii); assay: Test A preemergence, visual injury rating
Outline: as §1

kochia (Kochia scoparia) = assay: Test A preemergence, visual injury rating
Outline: as §1

[4] = tested on: pigweed (Amaranthus retroflexus); assay: Test A preemergence, visual injury rating
Outline: as §1

[5] = tested on: ragweed (common ragweed, Ambrosia elatior); assay: Test A preemergence, visual injury rating
Outline: as §1

[6] = tested on: blackgrass (Alopecurus myosuroides); assay: Test C postemergence, plant response rating; conditions: for Plant response rating, Blackgrass: scale 0 to 100; for Blackgrass plant response rating: scale 0 to 100 (0 no effect, 100 complete control)
Outline: (§2)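 Visual injury score, 0 = no effect, 100 = complete control, assigned against untreated controls after 13 to 15 d in the greenhouse. Compounds were applied in a surfactant-containing non-phytotoxic solvent mix, preemergence to seeded loam/sand or silt loam soil, or postemergence to 1- to 4-leaf plants (2 to 18 cm).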

[7] = tested on: chickweed (common chickweed, Stellaria media); assay: Test C postemergence, plant response rating; conditions: for Chickweed plant response rating: scale 0 to 100 (0 no effect, 100 complete control)
Outline: as §2

corn (Zea mays) = assay: Test C postemergence, plant response rating; conditions: for Corn plant response rating: scale 0 to 100 (0 no effect, 100 complete control)
Outline: as §2

[8] = tested on: crabgrass, large (large crabgrass, Digitaria sanguinalis); assay: Test C postemergence, plant response rating; conditions: for Crabgrass, Large plant response rating: scale 0 to 100 (0 no effect, 100 complete control)
Outline: as §2

[9] = tested on: foxtail, giant (giant foxtail, Setaria faberii); assay: Test C postemergence, plant response rating; conditions: for Foxtail, Giant plant response rating: scale 0 to 100 (0 no effect, 100 complete control)
Outline: as §2

[10] = tested on: galium (catchweed bedstraw, Galium aparine); assay: Test C postemergence, plant response rating; conditions: for Galium plant response rating: scale 0 to 100 (0 no effect, 100 complete control)
Outline: as §2

[11] = tested on: lambsquarters (Chenopodium album); assay: Test C postemergence, plant response rating; conditions: for Lambsquarters plant response rating: scale 0 to 100 (0 no effect, 100 complete control)
Outline: as §2

[12] = tested on: nutsedge, yellow (yellow nutsedge, Cyperus esculentus); assay: Test C postemergence, plant response rating; conditions: for Nutsedge, Yellow plant response rating: scale 0 to 100 (0 no effect, 100 complete control)
Outline: as §2

[13] = tested on: oat, wild (wild oat Avena fatua); assay: Test C postemergence, plant response rating; conditions: for Oat, Wild plant response rating: scale 0 to 100 (0 no effect, 100 complete control)
Outline: as §2

[14] = tested on: ryegrass, Italian (Italian ryegrass, Lolium multiflorum); assay: Test C postemergence, plant response rating; conditions: for Ryegrass, Italian plant response rating: scale 0 to 100 (0 no effect, 100 complete control)
Outline: as §2

soybean (Glycine max) = assay: Test C postemergence, plant response rating; conditions: for Soybean plant response rating: scale 0 to 100 (0 no effect, 100 complete control)
Outline: as §2

[15] = tested on: wheat (winter wheat, Triticum aestivum); assay: Test C postemergence, plant response rating
Outline: as §2

[16] = 31 g ai/ha, 0 to 100 scale, 0 no effect, 100 complete control
[17] = 125 g ai/ha, 0 to 100 scale (0 no effect, 100 complete control)

SMILES: O=C(CCCCC(F)(F)F)c1c(Br)cccc1Oc1ncc(Cl)cn1 [Compound 82]
- Plant response rating, Ryegrass, Italian [1, 16]: 0
- Ryegrass, Italian plant response rating [1, 17]: 80
- Plant response rating, Barnyardgrass [2, 16]: 50
- Barnyardgrass plant response rating [2, 17]: 100
- Plant response rating, Foxtail, Giant [3, 16]: 90
- Foxtail, Giant plant response rating [3, 17]: 100
- Plant response rating, Kochia (kochia (Kochia scoparia); [16]): 70
- Kochia plant response rating (kochia (Kochia scoparia); [17]): 80
- Plant response rating, Pigweed [4, 16]: 90
- Pigweed plant response rating [4, 17]: 100
- Plant response rating, Ragweed [5, 16]: 0
- Ragweed plant response rating [5, 17]: 60
- Plant response rating, Blackgrass ([6]; 16 g ai/ha): 30
- Plant response rating, Blackgrass ([6]; 31 g ai/ha): 35
- Blackgrass plant response rating ([6]; 62 g ai/ha): 40
- Blackgrass plant response rating ([6]; 125 g ai/ha): 45
- Plant response rating, Chickweed ([7]; 16 g ai/ha, scale of 0 to 100): 55
- Plant response rating, Chickweed ([7]; 31 g ai/ha, scale 0 to 100): 85
- Chickweed plant response rating ([7]; 62 g ai/ha): 90
- Chickweed plant response rating ([7]; 125 g ai/ha): 90
- Plant response rating, Corn (corn (Zea mays); 16 g ai/ha, scale of 0 to 100): 20
- Plant response rating, Corn (corn (Zea mays); 31 g ai/ha, scale 0 to 100): 20
- Corn plant response rating (corn (Zea mays); 62 g ai/ha): 25
- Corn plant response rating (corn (Zea mays); 125 g ai/ha): 25
- Plant response rating, Crabgrass, Large ([8]; 16 g ai/ha, scale of 0 to 100): 10
- Plant response rating, Crabgrass, Large ([8]; 31 g ai/ha, scale 0 to 100): 30
- Crabgrass, Large plant response rating ([8]; 62 g ai/ha): 30
- Crabgrass, Large plant response rating ([8]; 125 g ai/ha): 20
- Plant response rating, Foxtail, Giant ([9]; 16 g ai/ha, scale of 0 to 100): 10
- Plant response rating, Foxtail, Giant ([9]; 31 g ai/ha, scale 0 to 100): 10
- Foxtail, Giant plant response rating ([9]; 62 g ai/ha): 10
- Foxtail, Giant plant response rating ([9]; 125 g ai/ha): 20
- Plant response rating, Galium ([10]; 16 g ai/ha, scale of 0 to 100): 50
- Plant response rating, Galium ([10]; 31 g ai/ha, scale 0 to 100): 75
- Galium plant response rating ([10]; 62 g ai/ha): 85
- Galium plant response rating ([10]; 125 g ai/ha): 90
- Plant response rating, Lambsquarters ([11]; 16 g ai/ha, scale of 0 to 100): 70
- Plant response rating, Lambsquarters ([11]; 31 g ai/ha, scale 0 to 100): 75
- Lambsquarters plant response rating ([11]; 62 g ai/ha): 85
- Lambsquarters plant response rating ([11]; 125 g ai/ha): 90
- Plant response rating, Nutsedge, Yellow ([12]; 16 g ai/ha, scale of 0 to 100): 10
- Plant response rating, Nutsedge, Yellow ([12]; 31 g ai/ha, scale 0 to 100): 10
- Nutsedge, Yellow plant response rating ([12]; 62 g ai/ha): 20
- Nutsedge, Yellow plant response rating ([12]; 125 g ai/ha): 10
- Plant response rating, Oat, Wild ([13]; 16 g ai/ha, scale of 0 to 100): 25
- Plant response rating, Oat, Wild ([13]; 31 g ai/ha, scale 0 to 100): 40
- Oat, Wild plant response rating ([13]; 62 g ai/ha): 40
- Oat, Wild plant response rating ([13]; 125 g ai/ha): 50
- Plant response rating, Ryegrass, Italian ([14]; 16 g ai/ha, scale of 0 to 100): 5
- Plant response rating, Ryegrass, Italian ([14]; 31 g ai/ha, scale 0 to 100): 15
- Ryegrass, Italian plant response rating ([14]; 62 g ai/ha): 20
- Ryegrass, Italian plant response rating ([14]; 125 g ai/ha): 25
- Plant response rating, Soybean (soybean (Glycine max); 16 g ai/ha, scale of 0 to 100): 25
- Plant response rating, Soybean (soybean (Glycine max); 31 g ai/ha, scale 0 to 100): 60
- Soybean plant response rating (soybean (Glycine max); 62 g ai/ha): 35
- Soybean plant response rating (soybean (Glycine max); 125 g ai/ha): 40
- Plant response rating, Wheat ([15]; 16 g ai/ha, scale of 0 to 100): 5
- Plant response rating, Wheat ([15]; 31 g ai/ha, scale 0 to 100): 10
- Wheat plant response rating ([15]; 125 g ai/ha, scale 0 to 100 (0 no effect, 100 complete control)): 30
